Reference: EP4501942A1, “PEPTIDOMIMETICS WITH ANTIVIRAL ACTIVITY” (priority 2023, dated 2025)
Read-outs that look alike come from different tables or passages of the source.

Legend:
[1] = target: SARS-CoV-2 M^pro protein (Severe acute respiratory syndrome coronavirus 2, UniProt P0DTD1); experiment: biochemical; details: for IC50: three separate experiments in duplicate, read-out: IC50, mean±SD; for inhibition at 10 µM: read-out: % of inhibition at 10 µM
[2] = tested on: SARS-CoV-2; experiment: microbe, parasite or virus in culture; assay type: cell-based
[3] = Cytotoxicity MTT assay in uninfected A549-ACE2 cells; assay type: cell-based; details: human
Description: To evaluate the cytotoxicity profile of the compounds MTT assays were performed in A549-ACE2 cells. Uninfected cells were incubated with a range of compound concentrations (from 100 to 1 µM) for forty-eight hours, time at which the MTT substrate [3-(4,5-dimethylthiazol-2-yl)-2,5-diphenyltetrazolium bromide] was added and the formation of formazan precipitates was evaluated two hours later, using a colorimetric readout. Vehicle-treated (DMSO) cells were used as reference (100 %).

[4] = Severe acute respiratory syndrome coronavirus 2, SARS-CoV-2, A549-ACE2 cells, MOI 0.005, 48 h, read-out: EC50
[5] = Severe acute respiratory syndrome coronavirus 2, SARS-CoV-2, A549-ACE2 cells, MOI 0.005, 48 h, read-out: EC90
[6] = isolated SARS-CoV-2 M^pro, compound at 10 µM
[7] = Severe acute respiratory syndrome coronavirus 2, A549-ACE2, 48 h

Compound	IC50 ([1]; isolated SARS-CoV-2 M^pro) [µM]	EC50 [2, 4] [µM]	EC90 [2, 5] [µM]	CC50 at 48 h [3] [µM]	inhibition at 10 µM [1, 6] [%]	inhibition at 10 µM [1] [%]	EC50 [2, 7] [µM]	EC90 [2, 7] [µM]
CC(C)C[C@@]1(C(=O)N[C@H](C#N)C[C@@H]2CCNC2=O)[C@H](C)CN1C(=O)[C@@H](NC(=O)OCc1ccccc1)C(C)C [Example 1]	1.99 ± 1	5	20	> 100				
CC(C)C[C@]1(C(=O)N[C@H](C#N)C[C@@H]2CCNC2=O)[C@@H](C)CN1C(=O)[C@@H](NC(=O)OCc1ccccc1)C(C)C [Example 2]					0			
CC(C)C[C@@]1(C(=O)N[C@H](C#N)C[C@@H]2CCNC2=O)[C@H](C)CN1C(=O)[C@@H](NC(=O)C(F)(F)F)C(C)C [Example 3]	2.58 ± 0.48	10	32	100				
CC(C)C[C@]1(C(=O)N[C@H](C#N)C[C@@H]2CCNC2=O)[C@@H](C)CN1C(=O)[C@@H](NC(=O)C(F)(F)F)C(C)C [Example 4]					0			
CC(C)[C@H](NC(=O)OCc1ccccc1)C(=O)N1C[C@@H](C)[C@@]1(Cc1ccccc1)C(=O)N[C@H](C#N)C[C@@H]1CCNC1=O [Example 5]	0.13 ± 0.03	1	6	> 100				
CC(C)[C@H](NC(=O)C(F)(F)F)C(=O)N1C[C@@H](C)[C@@]1(Cc1ccccc1)C(=O)N[C@H](C#N)C[C@@H]1CCNC1=O [Example 7]	0.2 ± 0.03	2	12	> 100				
CC(C)C(NC(=O)C1CC1)C(=O)N1CC(C)C1(Cc1ccccc1)C(=O)NC(C#N)CC1CCNC1=O [Example 8, Cyclopropylcarbonyl-L-Val-(αS,β'R)-Azf-NH[(1S)-1-cyano-2-[(3'S)-2'-oxopyrrolidin-3'-yl]ethane]	0.39 ± 0.05	8	31	> 100				
CC(C)[C@H](NC(=O)OCc1ccccc1)C(=O)N1C[C@@H](C)[C@@]1(Cc1ccc(O)cc1)C(=O)N[C@H](C#N)C[C@@H]1CCNC1=O [Example 9]	6.43 ± 0.53							
CC(C)[C@H](NC(=O)OCc1ccccc1)C(=O)N1C[C@@H](C)[C@@]1(Cc1ccc(OC(C)(C)C)cc1)C(=O)N[C@H](C#N)C[C@@H]1CCNC1=O [Example 10]						9		
CC(C)[C@H](NC(=O)OCc1ccccc1)C(=O)N1C[C@@H](C)[C@@]1(Cc1c[nH]c2ccccc12)C(=O)N[C@H](C#N)C[C@@H]1CCNC1=O [Example 11]	4.74 ± 0.81	31	48	> 100				
CC(C)C[C@@]1(C(=O)N[C@H](C#N)C[C@@H]2CCNC2=O)[C@H](C)CN1C(=O)[C@@H](NC(=O)OC(C)(C)C)C(C)(C)C [Example 12]	4.7 ± 0.76	29	> 50	100				
C[C@@H]1CN(C(=O)[C@@H](NC(=O)OCc2ccccc2)C(C)(C)C)[C@]1(Cc1ccccc1)C(=O)N[C@H](C#N)C[C@@H]1CCNC1=O [Example 13]		4	15	> 100				
C[C@@H]1CN(C(=O)[C@@H](NC(=O)C(F)(F)F)C(C)(C)C)[C@]1(Cc1ccccc1)C(=O)N[C@H](C#N)C[C@@H]1CCNC1=O [Example 15]		2	13	> 100				
COC(=O)N[C@H](C(=O)N1C[C@@H](C)[C@@]1(Cc1ccccc1)C(=O)N[C@H](C#N)C[C@@H]1CCNC1=O)C(C)(C)C [Example 16]	0.94 ± 0.17	3	20	> 100				
Cc1ccc(OCC(=O)N[C@H](C(=O)N2C[C@@H](C)[C@@]2(Cc2ccccc2)C(=O)N[C@H](C#N)C[C@@H]2CCNC2=O)C(C)(C)C)cc1 [Example 17]	1.03	3	18	100				
C[C@@H]1CN(C(=O)[C@@H](NC(=O)OCC(F)F)C(C)(C)C)[C@]1(Cc1ccccc1)C(=O)N[C@H](C#N)C[C@@H]1CCNC1=O [Example 18]		4	7	> 100				

Compound	IC50 ([1]; isolated SARS-CoV-2 M^pro) [µM]	EC50 [2, 4] [µM]	EC90 [2, 5] [µM]	CC50 at 48 h [3] [µM]	inhibition at 10 µM [1, 6] [%]	inhibition at 10 µM [1] [%]	EC50 [2, 7] [µM]	EC90 [2, 7] [µM]
C[C@@H]1CN(C(=O)[C@H](CCCCNC(=O)OC(C)(C)C)NC(=O)OCc2ccccc2)[C@]1(Cc1ccccc1)C(=O)N[C@H](C#N)C[C@@H]1CCNC1=O [Example 20]		7	18	100				
C[C@@H]1CN(C(=O)[C@H](CCCCN)NC(=O)OCc2ccccc2)[C@]1(Cc1ccccc1)C(=O)N[C@H](C#N)C[C@@H]1CCNC1=O [Example 21]	3.66							
C[C@@H]1CN(C(=O)[C@@H](NC(=O)OCc2ccccc2)C(C)(C)C)[C@]1(CCCCNC(=O)OC(C)(C)C)C(=O)N[C@H](C#N)C[C@@H]1CCNC1=O [Example 22]						16		
C[C@@H]1CN(C(=O)[C@@H](NC(=O)OCc2ccccc2)C(C)(C)C)[C@]1(CCCCN)C(=O)N[C@H](C#N)C[C@@H]1CCNC1=O [Example 23]						0		
C[C@@H]1CN(C(=O)[C@@H](NC(=O)OCc2ccccc2)C(C)(C)C)[C@]1(Cc1ccccc1)C(=O)N[C@H](C#N)Cc1c[nH]cn1 [Example 24]		18	40	> 100		10		
CC(C)[C@@H](CC(=O)N1C[C@@H](C)[C@@]1(Cc1ccccc1)C(=O)N[C@H](C#N)C[C@@H]1CCNC1=O)NC(=O)OC(C)(C)C [Example 26]						28		
CC(C)[C@H](NC(=O)OCc1ccccc1)C(=O)N1C[C@@H](C)[C@@]1(Cc1ccccc1)C(=O)N[C@H](C=O)C[C@@H]1CCNC1=O [Example 28, Z-L-Val-(αS,β'R)-Azf-L-Ala(3S-2-oxopyrrolidin-3-yl)-H]	0.005 ± 0.002	2	12	> 100				
COC(=O)N[C@H](C(=O)N1C[C@@H](C)[C@@]1(Cc1ccccc1)C(=O)N[C@H](C=O)C[C@@H]1CCNC1=O)C(C)(C)C [Example 30, Methyloxycarbonyl-L-Tbg-(αS,β'R)-Azf-L-Ala(3S-2-oxopyrrolidin-3-yl)-CHO]	0.048 ± 0.004	15	25	> 100				
C[C@@H]1CN(C(=O)[C@@H](NC(=O)OCC(F)F)C(C)(C)C)[C@]1(Cc1ccccc1)C(=O)N[C@H](C=O)C[C@@H]1CCNC1=O [Example 31, 2,2-Difluoroethyloxycarbonyl-L-Tbg-(αS,β'R)-Azf-L-Ala(3S-2-oxopyrrolidin-3-yl)-H]	0.024 ± 0.002	3	11	> 100				
C[C@@H]1CN(C(=O)[C@@H](NC(=O)OC(C)(C)C)C(C)(C)C)[C@]1(Cc1ccccc1)C(=O)N[C@H](/C=C/C(=O)OCc1ccccc1)C[C@@H]1CCNC1=O [Example 32]						40		
CC(C)C[C@@]1(C(=O)N[C@H](C#N)C[C@@H]2CCNC2=O)[C@H](C)CN1C(=O)[C@@H](NC(=O)OCC(F)F)C(C)(C)C [Example 33]	5.94 ± 0.69	16	> 25	> 100				
C[C@@H]1CN(C(=O)[C@@H](NC(=O)OC(C)(C)C)C(C)(C)C)[C@]1(CC1CCCCC1)C(=O)N[C@H](C#N)C[C@@H]1CCNC1=O [Example 35]		3	20	> 100				
C[C@@H]1CN(C(=O)[C@@H](NC(=O)OCC(F)F)C(C)(C)C)[C@]1(CC1CCCCC1)C(=O)N[C@H](C#N)C[C@@H]1CCNC1=O [Example 37]		4	22	> 100				
C[C@@H]1CN(C(=O)[C@@H](NC(=O)C(F)(F)F)C(C)(C)C)[C@]1(CC1CCCCC1)C(=O)N[C@H](C#N)C[C@@H]1CCNC1=O [Example 38]	2.36 ± 0.75	25	> 25	> 100				
CC(C)[C@H](NC(=O)OCC(F)F)C(=O)N1C[C@@H](C)[C@@]1(Cc1ccccc1)C(=O)N[C@H](C#N)C[C@@H]1CCNC1=O [Example 39]		0.4	2	> 50				
CC(C)(C)[C@H](NC(=O)C(F)(F)F)C(=O)N1C[C@H]2[C@@H]([C@H]1C(=O)N[C@H](C#N)C[C@@H]1CCNC1=O)C2(C)C [PF-07321332, nirmatrelvir, reference compound]				100			< 0.2	< 0.2
